According to patent US10683269B2 (MISSION THERAPEUTICS LIMITED, priority 2016, dated 2020):

Target: T1, USP7 (Homo sapiens, UniProt Q93009)
T1 construct: The USP7 construct was PCR amplified and cloned into a pFLAG-CMV-6a vector (Sigma-Aldrich) with an N-terminal FLAG tag; made in house; host or cells: HEK293T
Experiment: USP7 biochemical IC50 assay (fluorescence polarisation, TAMRA labelled peptide linked to ubiquitin via an iso-peptide bond)
Details: 30 min pre-incubation of enzyme and compound, read after 2 hr incubation at room temperature, read-out: IC50 range
Procedure, shortened: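 Fluorescence polarisation at 540 nm excitation/590 nm emission, read immediately and after 2 hr at room temperature, following addition of 50 nM TAMRA-labelled iso-peptide ubiquitin substrate.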

T1 sequence (Q93009 whole entry): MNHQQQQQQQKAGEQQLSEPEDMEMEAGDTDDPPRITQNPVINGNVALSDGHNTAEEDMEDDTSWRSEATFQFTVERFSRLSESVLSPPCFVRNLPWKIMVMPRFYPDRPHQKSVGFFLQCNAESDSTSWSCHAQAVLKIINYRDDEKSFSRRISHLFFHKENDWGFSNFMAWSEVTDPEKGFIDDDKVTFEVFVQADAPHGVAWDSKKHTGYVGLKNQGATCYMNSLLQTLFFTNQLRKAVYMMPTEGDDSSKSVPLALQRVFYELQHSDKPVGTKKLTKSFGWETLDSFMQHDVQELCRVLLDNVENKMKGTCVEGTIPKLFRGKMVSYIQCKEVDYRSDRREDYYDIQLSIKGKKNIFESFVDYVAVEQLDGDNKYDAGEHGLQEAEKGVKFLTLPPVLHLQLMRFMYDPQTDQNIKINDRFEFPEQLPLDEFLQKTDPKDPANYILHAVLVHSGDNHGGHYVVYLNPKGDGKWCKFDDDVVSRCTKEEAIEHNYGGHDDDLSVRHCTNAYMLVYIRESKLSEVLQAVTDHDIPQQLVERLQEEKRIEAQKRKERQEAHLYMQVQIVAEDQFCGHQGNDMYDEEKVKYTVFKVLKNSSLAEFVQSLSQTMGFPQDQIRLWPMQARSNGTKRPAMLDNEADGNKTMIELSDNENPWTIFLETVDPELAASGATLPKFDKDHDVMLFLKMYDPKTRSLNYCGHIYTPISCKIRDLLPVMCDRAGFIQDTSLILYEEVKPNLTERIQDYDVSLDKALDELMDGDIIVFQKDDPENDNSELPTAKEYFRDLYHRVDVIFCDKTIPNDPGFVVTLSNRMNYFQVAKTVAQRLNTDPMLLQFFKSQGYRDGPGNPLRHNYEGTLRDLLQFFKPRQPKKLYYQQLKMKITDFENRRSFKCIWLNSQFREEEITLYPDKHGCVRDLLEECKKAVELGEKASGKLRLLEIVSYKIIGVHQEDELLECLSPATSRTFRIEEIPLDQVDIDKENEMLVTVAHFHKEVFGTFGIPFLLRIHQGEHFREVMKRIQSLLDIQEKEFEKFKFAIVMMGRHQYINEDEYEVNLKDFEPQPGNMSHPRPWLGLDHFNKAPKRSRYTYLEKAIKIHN

Row | IC50 [µM] | Structure (SMILES)
1 | 1 to 10 | CC(=O)Nc1ccc2c(c1-c1ccccc1)CN(C#N)C2 [Example 96, N-(2-cyano-4-phenylisoindolin-5-yl)acetamide]
2 | < 1 | N#CN1Cc2nc(NCCO)nc(-c3cccc(N4CCCC4=O)c3)c2C1 [Example 291, 2-((2-hydroxyethyl)amino)-4-(3-(2-oxopyrrolidin-1-yl)phenyl)-5,7-dihydro-6H-pyrrolo[3,4-d]pyrimidine-6-carbonitrile]
3 | < 1 | CNC(=O)c1ccc(-c2cc(NC(=O)[C@@H]3CCCN(C)C3)cc3c2CN(C#N)C3)cc1 [Example 29, (R)-N-(2-cyano-7-(4-(methylcarbamoyl)phenyl)isoindolin-5-yl)-1-methylpiperidine-3-carboxamide]
4 | < 1 | N#CN1Cc2nc(NCCO)nc(-c3cccc(N4CCOC4=O)c3)c2C1 [Example 292, 2-((2-hydroxyethyl)amino)-4-(3-(2-oxooxazolidin-3-yl)phenyl)-5,7-dihydro-6H-pyrrolo[3,4-d]pyrimidine-6-carbonitrile]
5 | < 1 | CN1CCC[C@@H](C(=O)Nc2cc3c(c(-c4ccccc4)c2)CN(C#N)C3)C1 [Example 38, (R)—N-(2-cyano-7-phenylisoindolin-5-yl)-1-methylpiperidine-3-carboxamide]
6 | 1 to 10 | CN1CCOC(CN(C)c2nc3c(c(N4CCc5ccccc5C4)n2)CN(C#N)C3)C1 (stereo not shown) [Example 203, 4-(3,4-dihydroisoquinolin-2(1H)-yl)-2-(methyl((4-methylmorpholin-2-yl)methyl)amino)-5,7-dihydro-6H-pyrrolo[3,4-d]pyrimidine-6-carbonitrile]
7 | 1 to 10 | CC(C)Nc1cc2c(c(-c3ccc(C#N)cc3)c1)CN(C#N)C2 [Example 272, 4-(4-cyanophenyl)-6-(isopropylamino)isoindoline-2-carbonitrile]
8 | 1 to 10 | N#CN1Cc2nc(NCCO)nc(-c3ccc(F)c(F)c3)c2C1 [Example 209, 4-(3,4-difluorophenyl)-2-((2-hydroxyethyl)amino)-5,7-dihydro-6H-pyrrolo[3,4-d]pyrimidine-6-carbonitrile]
9 | 1 to 10 | CC(=O)NCc1cc2c(c(-c3ccccc3)c1)CN(C#N)C2 [Example 214, N-((2-cyano-7-phenylisoindolin-5-yl)methyl)acetamide]
10 | 1 to 10 | Cn1nccc1CNc1cc2c(c(-c3ccc(C#N)cc3)c1)CN(C#N)C2 [Example 276, 4-(4-cyanophenyl)-6-(((1-methyl-1H-pyrazol-5-yl)methyl)amino)isoindoline-2-carbonitrile]
11 | < 1 | CC(=O)N1CCC(C(=O)Nc2cc3c(c(-c4ccccc4)c2)CN(C#N)C3)CC1 [Example 47, 1-acetyl-N-(2-cyano-7-phenylisoindolin-5-yl)piperidine-4-carboxamide]
12 | 1 to 10 | C[C@H](O)c1ccccc1-c1cccc2c1CN(C#N)C2 [Example 71, (S)-4-(2-(1-hydroxyethyl)phenyl)isoindoline-2-carbonitrile]
13 | 1 to 10 | N#Cc1ccc(N2CCOC2=O)cc1-c1cccc2c1CN(C#N)C2 [Example 298, 4-(2-cyano-5-(2-oxooxazolidin-3-yl)phenyl)isoindoline-2-carbonitrile]
14 | < 1 | CN1CC(C(=O)Nc2cc3c(c(-c4ccccc4)c2)CN(C#N)C3)CC1=O (stereo not shown) [Example 52, N-(2-cyano-7-phenylisoindolin-5-yl)-1-methyl-5-oxopyrrolidine-3-carboxamide]
15 | 1 to 10 | N#CN1Cc2cc(NC(=O)C3CCNCC3)cc(-c3ccccc3)c2C1 [Example 63, N-(2-cyano-7-phenylisoindolin-5-yl)piperidine-4-carboxamide]
16 | 30 to 100 | N#CN1Cc2nc(Cl)nc(-c3ccccc3F)c2C1 [Example 150, 2-chloro-4-(2-fluorophenyl)-5,7-dihydro-6H-pyrrolo[3,4-d]pyrimidine-6-carbonitrile]
17 | 1 to 10 | N#Cc1ccc(-c2ccc(F)c3c2CN(C#N)C3)c(C(N)=O)c1 [Example 261, 5-cyano-2-(2-cyano-7-fluoroisoindolin-4-yl)benzamide]
18 | 1 to 10 | Cn1cc(Nc2nc3c(c(-c4ccccc4)n2)CN(C#N)C3)cn1 [Example 112, 2-((1-methyl-1H-pyrazol-4-yl)amino)-4-phenyl-5,7-dihydro-6H-pyrrolo[3,4-d]pyrimidine-6-carbonitrile]
19 | 1 to 10 | CC(O)CNc1cc2c(c(-c3ccc(C#N)cc3)c1)CN(C#N)C2 (stereo not shown) [Example 286, 4-(4-Cyanophenyl)-6-((2-hydroxypropyl)amino)isoindoline-2-carbonitrile]
20 | 30 to 100 | COc1cccc(-c2nc3c(c(N4CCCC4)n2)CN(C#N)C3)c1 [Example 136, 2-(3-methoxyphenyl)-4-(pyrrolidin-1-yl)-5,7-dihydro-6H-pyrrolo[3,4-d]pyrimidine-6-carbonitrile]
21 | 1 to 10 | Cc1[nH]ncc1-c1nc2c(c(N3CCc4ccccc4C3)n1)CN(C#N)C2 [Example 139, 4-(3,4-dihydroisoquinolin-2(1H)-yl)-2-(5-methyl-1H-pyrazol-4-yl)-5,7-dihydro-6H-pyrrolo[3,4-d]pyrimidine-6-carbonitrile]
22 | 1 to 10 | N#CN1Cc2cc(NC(=O)CCc3cccnc3)cc(-c3ccccc3)c2C1 [Example 41, N-(2-cyano-7-phenylisoindolin-5-yl)-3-(pyridin-3-yl)propanamide]

Row | IC50 [µM] | Structure (SMILES)
23 | 1 to 10 | CNC(=O)c1ccc2cnc(Nc3cccc4c3CN(C#N)C4)cc2c1 [Example 22]
24 | 1 to 10 | N#CN1Cc2cccc(-c3ccccc3C(=O)NCCN)c2C1 [Example 77, N-(2-aminoethyl)-2-(2-cyanoisoindolin-4-yl)benzamide]
25 | 1 to 10 | N#CN1Cc2nc(NCC3CCOCC3)nc(-c3ccccc3)c2C1 [Example 111, 4-phenyl-2-(((tetrahydro-2H-pyran-4-yl)methyl)amino)-5,7-dihydro-6H-pyrrolo[3,4-d]pyrimidine-6-carbonitrile]
26 | 1 to 10 | N#CN1Cc2nc(NCCc3ccccn3)nc(-c3ccccc3)c2C1 [Example 114, 4-phenyl-2-((2-(pyridin-2-yl)ethyl)amino)-5,7-dihydro-6H-pyrrolo[3,4-d]pyrimidine-6-carbonitrile]
27 | 1 to 10 | N#CN1Cc2nc(NCc3ncccn3)nc(-c3ccccc3)c2C1 [Example 113, 4-phenyl-2-((pyrimidin-2-ylmethyl)amino)-5,7-dihydro-6H-pyrrolo[3,4-d]pyrimidine-6-carbonitrile]
28 | 10 to 30 | N#CN1Cc2nc(NCc3ccco3)nc(-c3ccccc3)c2C1 [Example 121, 2-((furan-2-ylmethyl)amino)-4-phenyl-5,7-dihydro-6H-pyrrolo[3,4-d]pyrimidine-6-carbonitrile]
29 | 1 to 10 | N#CN1Cc2nc(NCc3cccnc3)nc(-c3ccccc3)c2C1 [Example 118, 4-phenyl-2-((pyridin-3-ylmethyl)amino)-5,7-dihydro-6H-pyrrolo[3,4-d]pyrimidine-6-carbonitrile]
30 | 1 to 10 | CN1CCC(C(=O)Nc2ccc3c(c2)CN(C#N)C3)C1 (stereo not shown) [Example 94, N-(2-cyanoisoindolin-5-yl)-1-methylpyrrolidine-3-carboxamide]
31 | 1 to 10 | CN1CCOC(CNc2nc3c(c(-c4cccnc4)n2)CN(C#N)C3)C1 (stereo not shown) [Example 192, 2-(((4-methylmorpholin-2-yl)methyl)amino)-4-(pyridin-3-yl)-5,7-dihydro-6H-pyrrolo[3,4-d]pyrimidine-6-carbonitrile]
32 | < 1 | CN1CCN(C(=O)Nc2cc3c(c(-c4ccccc4)c2)CN(C#N)C3)CC1 [Example 60, N-(2-cyano-7-phenylisoindolin-5-yl)-4-methylpiperazine-1-carboxamide]
33 | 1 to 10 | CC(=O)Nc1nc2c(c(N3CCc4ccccc4C3)n1)CN(C#N)C2 [Example 128, N-(6-cyano-4-(3,4-dihydroisoquinolin-2(1H)-yl)-6,7-dihydro-5H-pyrrolo[3,4-d]pyrimidin-2-yl)acetamide]
34 | < 1 | CN1CCOC(CNc2nc3c(c(-c4ccccc4)n2)CN(C#N)C3)C1 (single isomer, unassigned) [Example 153, 2-(((4-methylmorpholin-2-yl)methyl)amino)-4-phenyl-5,7-dihydro-6H-pyrrolo[3,4-d]pyrimidine-6-carbonitrile]
35 | 1 to 10 | CCNS(=O)(=O)c1ccccc1-c1cccc2c1CN(C#N)C2 [Example 175, 2-(2-cyanoisoindolin-4-yl)-N-ethylbenzenesulfonamide]
36 | 1 to 10 | CN(C)C(=O)CCC(=O)Nc1cc2c(c(-c3ccccc3)c1)CN(C#N)C2 [Example 46, N1-(2-cyano-7-phenylisoindolin-5-yl)-N4,N4-dimethylsuccinamide]
37 | 1 to 10 | COc1cc2cc(C(=O)Nc3cccc4c3CN(C#N)C4)[nH]c2cn1 [Example 85, N-(2-cyanoisoindolin-4-yl)-5-methoxy-1H-pyrrolo[2,3-c]pyridine-2-carboxamide]
38 | 1 to 10 | CC(=O)NCc1cc2c(c(-c3ccccc3C#N)c1)CN(C#N)C2 [Example 225, N-((2-cyano-7-(2-cyanophenyl)isoindolin-5-yl)methyl)acetamide]
39 | 10 to 30 | Cn1cc(-c2nnc(-c3ccccc3)c3c2CN(C#N)C3)cn1 [Example 97, 1-(1-methyl-1H-pyrazol-4-yl)-4-phenyl-5,7-dihydro-6H-pyrrolo[3,4-c]pyridazine-6-carbonitrile]
40 | 10 to 30 | CCNc1nc2c(c(-c3ccccc3C(N)=O)n1)CN(C#N)C2 [Example 123, 2-(6-cyano-2-(ethylamino)-6,7-dihydro-5H-pyrrolo[3,4-c]pyrimidin-4-yl)benzamide]
41 | 1 to 10 | CN1CCC[C@@H](C(=O)Nc2cc3c(c(-c4cccnc4)c2)CN(C#N)C3)C1 [Example 164, (R)-N-(2-cyano-7-(pyridin-3-yl)isoindolin-5-yl)-1-methylpiperidine-3-carboxamide]
42 | 1 to 10 | COC(CO)CNc1cc2c(c(-c3ccc(C#N)cc3)c1)CN(C#N)C2 (stereo not shown) [Example 284, 4-(4-Cyanophenyl)-6-((3-hydroxy-2-methoxypropyl)amino)isoindoline-2-carbonitrile]
43 | < 1 | N#Cc1ccc(-c2cccc3c2CN(C#N)C3)c(C#N)c1 [Example 72, 4-(2-cyanoisoindolin-4-yl)isophthalonitrile]
